Where two headings read alike, the source gives them in different places. Where no end group is shown, it is not given here.
Legend:
[1] = biological target: T1, Human ATAD2 BRD-containing protein (residues 966–1112) (Homo sapiens, UniProt Q6PL18); settings: read-out: KD for ATAD2; ITC; cited from earlier work
T1 sequence (Q6PL18 966-1112): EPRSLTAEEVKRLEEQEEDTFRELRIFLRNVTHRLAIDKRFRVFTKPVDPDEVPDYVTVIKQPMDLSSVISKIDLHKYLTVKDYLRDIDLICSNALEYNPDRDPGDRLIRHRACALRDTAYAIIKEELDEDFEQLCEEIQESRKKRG

[2] = biological target: T2, human ATAD2B BRD-containing protein (residues 953–1085) (Homo sapiens, UniProt Q9ULI0); settings: read-out: KD for ATAD2B; ITC; cited from earlier work
T2 sequence (Q9ULI0 953-1085): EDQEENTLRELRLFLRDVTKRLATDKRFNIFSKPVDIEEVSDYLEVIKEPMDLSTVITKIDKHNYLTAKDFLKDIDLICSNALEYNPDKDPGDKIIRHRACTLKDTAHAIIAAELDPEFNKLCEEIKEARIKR

[3] = biological target: T2, human ATAD2B BRD-containing protein (residues 953–1085); assay: ITC of histone peptides with the ATAD2B BRD
ATAD2 BRD = settings: induces dimerization of the ATAD2 BRD to block binding to acetylated histones; cited from earlier work

SGRGKacQGGKARA [H2AK5ac (1–12)]
Kd [1]: 38.9 ± 5.9 µM | Kd [2]: 42.5 ± 2.9 µM

H4K5ac (1–15): wild-type histone H4K5ac ligand residues 1–15, values from earlier papers
Kd [2]: 5.2 ± 1 µM

SGRGKTGGK(Ac)ARAKAKSR-NH2 [H2A.XK9ac (1–17)]
Kd [3]: 90 ± 12.8 µM

COc1cc(Cl)c(C(=O)N[C@@H](CN[C@H]2CC[C@@H](N)CC2)Cc2ccc(C#N)cc2)cc1-c1ccc(CN[C@H](C)c2ccc(C)cc2)o1 [BAY-850]
IC50 (ATAD2 BRD): 0.02 µM

Reference: publication PMC11149620 (Journal of medicinal chemistry, 2024)
